Experimental data reported in patent publication US12570704B2, “Functionally modified maytansinoids and compositions and methods of use thereof” (University of Georgia Research Foundation, Inc., priority 2019, dated 2026).

Assays:
[1] = Stability of dry DM1-NO under ambient conditions (Griess assay); assay type: physicochemical; settings: powder form, 2 weeks' storage at room temperature
Text: FIGS. 1A and 1B are schemes illustrating how DM1-NO encapsulated PLGA-b-PEG nanoparticles (DM1-NO-NPs) can accumulate in tumors through the EPR effect. In the presence of radiation and/or reduced pH in endosomes/lysosomes, the S—N bond was broken, releasing DM1 and NO. DM1 inhibits microtubule assembly, arresting cells at the more radiosensitive G2/M phase. Meanwhile, NO can react with ROS to form radicals such as peroxynitrites, causing DNA and lipid damages. The combined effects enhance the efficacy of RT. […] Quantification was based on Greiss assay. PBS, cell culture medium (RPBI-1640), DM1, and DM1-NPs were tested as controls. FIG. 1D is a histogram showing the results of DLS analysis of DM1-NO-NPs in water. FIG. 1E is a plot showing the zeta potential of DM1-NO-NPs in water. FIG. 1F is a bar graph illustrating the stability of DM1-NO under ambient conditions. After synthesis, dry product of DM1-NO was kept at room temperature and the total amount of remaining NO was quantified using Griess assay on Day 0, 7, 14, and 21. FIG. 1G is plot illustrating the stability of DM1-NO in solutions. DM1-NO (20.09 μmol) was dissolved in PBS of different pH (5.5, 6.5, and 7.4). Time-dependent NO release was measured on a Sievers NOA 280i system, which assesses NO based on gas phase chemiluminescent reaction between NO and ozone. […]

[2] = Time-dependent NO release in PBS of different pH (Sievers NOA 280i chemiluminescence); assay type: physicochemical
Text: FIGS. 1A and 1B are schemes illustrating how DM1-NO encapsulated PLGA-b-PEG nanoparticles (DM1-NO-NPs) can accumulate in tumors through the EPR effect. In the presence of radiation and/or reduced pH in endosomes/lysosomes, the S—N bond was broken, releasing DM1 and NO. DM1 inhibits microtubule assembly, arresting cells at the more radiosensitive G2/M phase. Meanwhile, NO can react with ROS to form radicals such as peroxynitrites, causing DNA and lipid damages. The combined effects enhance the efficacy of RT. […] Quantification was based on Greiss assay. PBS, cell culture medium (RPBI-1640), DM1, and DM1-NPs were tested as controls. FIG. 1D is a histogram showing the results of DLS analysis of DM1-NO-NPs in water. FIG. 1E is a plot showing the zeta potential of DM1-NO-NPs in water. FIG. 1F is a bar graph illustrating the stability of DM1-NO under ambient conditions. After synthesis, dry product of DM1-NO was kept at room temperature and the total amount of remaining NO was quantified using Griess assay on Day 0, 7, 14, and 21. FIG. 1G is plot illustrating the stability of DM1-NO in solutions. DM1-NO (20.09 μmol) was dissolved in PBS of different pH (5.5, 6.5, and 7.4). Time-dependent NO release was measured on a Sievers NOA 280i system, which assesses NO based on gas phase chemiluminescent reaction between NO and ozone. FIG. 1H is a line graph showing release profiles for DM1-NO-NPs, tested in PBS of different pH at 37° C. by Greiss assays. FIG. 1I is a histogram showing the results of DLS analysis of DM1-NPs. FIG. 1J is a plot showing the zeta potential of DM1-NPs. FIG. 1K is a series of representative images of clonogenic assays. H1299 cells were treated with 20 nM of DM1 and DM1-NO for 12 h, followed −X-ray irradiation (6 Gy). The resulting cells were plated for clonogenic assays. FIG. 1L is a plot showing UV-vis analysis of DM1-NO, PLGA-b-PEG and DM1-NO-NPs. FIG. 1M is a plot showing FT-IR analysis of DM1-NO, PLGA-b-PEG and DM1-NO-NPs. FIG. 1N is a plot showing the results of DLS analysis (hydrodynamic size) over time for DM1-NO-NPs that were incubated in PBS for 24 h.
DM1-NO was stable under ambient conditions in the powder form. According to Griess assay, less than 10% of the compound was degraded over 2 weeks' storage at room temperature (FIG. 1F). […] (FIG. 1G), and the degradation was accelerated at low pH (e.g. pH 6.5 or 5.5, FIG. 1G, Table 1), and under X-ray irradiation (FIG. 1C).

H1299 cells = experiment: Superoxide dismutase (SOD) assay, cytosolic and mitochondrial; assay type: cell-based, human; settings: +RT (6 Gy), 20 nM, compared to DM1+RT
Protocol: Around 3×10^4 cells per well were seeded into each well of a six-well plate and cultured overnight. The cells treated with free drug (DM1 and DM1-NO), and drug loaded nanoparticles (DM1-NPs and DM1-NO-NPs) were given the same concentration of drug (20 nM) and irradiated with 6 Gy of radiation. The plates were then incubated for 24 h. After the treatment, the cells were rinsed with PBS, and the cell pellets were collected using a cell scraper. Cells were homogenized using a sonicator in ice-cold 20 mM 4-(2-hydroxyethyl)-1-piperazineethanesulfonic acid (HEPS) buffer (pH 7.2, containing 1 mM of ethylene glycol-bis(β-aminoethyl ether)-N,N,N′,N′-tetraacetic acid, also known as EGTA; Millipore Sigma, USA), […] of mannitol, and 70 mM sucrose. Following homogenization, a pellet was formed by centrifugation at 15,000×g for 15 minutes at 4° C. The supernatant was collected, and an assay was immediately performed to assess cytosolic SOD levels by comparing to a standard curve. To measure mitochondrial SOD levels, the pellet was resuspended in ice-cold PBS, and the sample was measured accordingly.

[3] = system: H1299 tumor bearing nude mice; experiment: In vivo therapy study with X-ray irradiation; settings: 260.8 nmol/kg i.v. + 6 Gy after 4 h; RT only 1826.4
Protocol: All animal experiments were performed according to protocols approved by the Institutional Animal Care and Use Committee (IACUC). Female athymic nude mice (Charles River Laboratories, USA) at 6 weeks old were housed in a protected unit specified for immunodeficient animals. To establish tumor models, H1299 cells (2×10^5 cells) were suspend in a matrigel solution and were subcutaneously injected into mice using a 28-gauge needle. All mice were randomized into six groups (n=5). When the average tumor volume reached 150 mm3, 200 μL free drug (DM1, DM1-NO) or drug loaded NPs (DM1-NPs, DM1-NO-NPs) in PBS at a dose of 260.8 nmol/kg were injected intravenously into the mice. Mice treated with 200 μL PBS were studied as a control. All the other mice received X-ray irradiation (6 Gy, 320 kV) to tumors 4 h after drug/nanoparticle injection, with the rest of the body shielded by lead. Tumor size and body weight were inspected every 3 days using a digital caliper, and the tumor volume was estimated as (length)×(width)2/2. After 24 days, the mice were euthanized, and the tumor was excised and dissected into slices for hematoxylin and eosin (H&E) staining.
In vivo therapy studies were performed with H1299 tumor bearing nude mice. When tumor size reached 150 mm3, DM1-NO-NPs (260.8 nmol/kg, equivalent to 0.2 mg DM1/kg) was intravenously (i.v.) injected into the animals (n=5). […]

## COc1cc2cc(c1Cl)N(C)C(=O)C[C@@H](OC(=O)[C@H](C)N(C)C(=O)CCSN=O)[C@]1(C)OC1[C@H](C)[C@@H]1C[C@@](O)(NC(=O)O1)[C@H](OC)/C=C\C=C(/C)C2 (some centres unmarked) [DM1-NO]
[1]
  compound degraded: less than 10%
[2]; PBS at 37° C., accelerated at low pH and under X-ray
  degradation in solution: gradually broke down
[2]; PBS pH 5.5
  Average NO Release (per μL of sample): 1.29E−07 μmol NO/min
[2]; PBS pH 6.5
  Average NO Release (per μL of sample): 7.81E−08 μmol NO/min
[2]; PBS pH 7.4
  Average NO Release (per μL of sample): 7.83E−08 μmol NO/min
H1299 cells
  increase of cytosol SOD activity: 70.08%
  increase of mitochondrial SOD activity: 24.36%
[3]
  average tumor size (volume) on Day 24: 759.33 mm3
